Data taken from PMC3169616, “Unique Residues Involved in Activation of the Multitasking Protease/Chaperone HtrA from Chlamydia trachomatis” (PLoS ONE, 2011).
No end group written: not given here. *: point of attachment. pNA = O=[N+]([O-])c1ccc(N*)cc1

Key:
CtHtrA [1] = target: T1, CtHtrA (Chlamydia trachomatis serovar D, UniProt P18584); assay: Oligomerisation assay (glutaraldehyde crosslinking, 3-8% TrisAcetate gel, silver stain); type: biochemical; details: wild type CtHtrA 2 mg/ml, 100 mM sodium phosphate pH 7.0, 10 mins at 37°C, 0.5% glutaraldehyde fixation
T1 construct: His-tag; made in house; host or cells: E. coli BL21 (DE3), plasmid pETHtrA
T1 sequence (P18584 17-497): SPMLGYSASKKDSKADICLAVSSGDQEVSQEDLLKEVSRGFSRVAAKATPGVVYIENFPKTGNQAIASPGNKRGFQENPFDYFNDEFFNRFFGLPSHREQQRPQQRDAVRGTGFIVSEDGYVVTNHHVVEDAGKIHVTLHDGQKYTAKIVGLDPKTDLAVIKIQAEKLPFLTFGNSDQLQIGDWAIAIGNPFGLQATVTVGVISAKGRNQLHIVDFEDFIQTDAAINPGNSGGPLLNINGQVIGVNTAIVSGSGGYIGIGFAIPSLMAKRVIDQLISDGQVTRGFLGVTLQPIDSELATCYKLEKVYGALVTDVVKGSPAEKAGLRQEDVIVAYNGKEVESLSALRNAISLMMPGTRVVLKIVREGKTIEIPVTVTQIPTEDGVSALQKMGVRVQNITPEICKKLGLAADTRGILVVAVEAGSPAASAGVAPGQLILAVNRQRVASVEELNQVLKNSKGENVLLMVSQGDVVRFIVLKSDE
Protocol: (§1) E. coli DegP proteolysis activation involves the transition from resting hexamers via trimers to 12- and 24-mers following the peptide activator binding to the PDZ1 binding cleft. CtHtrA oligomer formation induced by Act1 addition was examined after incubation for 10 mins at 37°C. The wild type and mutant proteins were incubated with either the ß-casein based activator peptide (Act1), or with whole insulin (intact), or in the absence of any activator as a control. CtHtrA incubated in the absence of any added activators formed 24-mers with some hexamers detected after 10 mins (Fig. 5). […] The R299W mutant was present as hexamer and 24-mer in the control with no activator. […] The L302N mutant was not detected in any higher oligomeric form under any conditions. L302N was detected as faint hexamer and trimer but mostly monomer under all tested conditions (not visible on these gels). […] I365D was detected as hexamers, trimers, 12-mers, and some 24-mers when incubated in the absence of activators.
(§2) The oligomerisation of HtrA into 12- and 24-mer complexes has been independently detected for E. coli HtrA (DegP). The oligomerisation of HtrA (DegP) was triggered by peptides from digested ß-casein [18]. Assays to detect whether CtHtrA and site directed mutant protein oligomerisation was triggered by substrates were conducted essentially as previously described (Merdanovic et al., 2010). Briefly, 2 mg/ml protein solutions in 100 mM sodium phosphate buffer pH 7.0 were pre-incubated to the required temperature. The ligands (activator peptide, or insulin) were added and at 10 min, and the proteins were fixed using 0.5% glutaraldehyde. Samples were fixed at room temperature for 2 min prior to addition of 1 M Tris pH 7.5 to remove any excess glutaraldehyde. Samples were incubated for another 10 min at room temperature prior to addition of SDS PAGE reducing loading buffer. The protein samples were examined on 3–8% TrisAcetate gradient polyacrylamide gels (Novex, Invitrogen) by silver staining. The proteins used in this study were not initially denatured by treatment with urea as, the refolding, formation of oligomers, and protease activity was never successfully detected with denatured CtHtrA. All assays were conducted in duplicate on three separate occasions with at least two gels of each experiment completed for each assay condition.

CtHtrA [2] = target: T1, CtHtrA; assay: Activation of CtHtrA cleavage of Bcas1 substrate by added activator; type: biochemical; details: substrate Bcas1 (MCA-ENLHLPLPIIF-DNP), fluorimetric, 37°C
Protocol: To determine if the addition of a second peptide to the protease assays could activate or increase CtHtrA proteolysis, two activator peptides were tested in the CtHtrA cleavage of the model ß-casein peptide substrate Bcas1. The first was based on the ß-casein C-terminal sequence (Act1: NH2-VLGPVRGPFPIIV-OH) and the second on insulin b chain C-terminal sequence (Act2: NH2-CGELGFFYTP-OH).
Finally, in order to determine if the 24-mer (highest amount with MOMP protein, or Act1), or 12-mer, or both, corresponds to enhanced protease activity, the incubations of CtHtrA and these potential in vivo activators were used for protease assays with the Bcas1 substrate (Fig. 6). […] The presence of the majority of CtHtrA as higher order oligomers correlated with an increased rate of proteolysis for CtHtrA, particularly when these oligomers were predominately 24-mers.
The purified recombinant protein was examined by Coomassie stained polyacrylamide gels and activity was checked using ß-casein cleavage assays prior to use in peptide assays. Briefly, this involved incubating 2 µg of the protease with 10 µg of ß-casein in 50 mM Tris pH 7.0, 20 mM MgCl2 for 2 h prior to examining the assays by SDS PAGE (ß-casein and protease only controls were always conducted). Protease assays using peptides were conducted using custom synthesised peptides (Mimotopes). […] Protease assays using pNA labelled peptides were conducted using the xMARK Microplate spectrophotometer (Bio-Rad) at 405 nm, incubated at 37°C, with a reading taken every 10 s for 30 min. The maximum slope over a minimum of 8 readings was used for the data analysis. […] The assays were excited at 340 nm and emission was detected at 405 nm with a gain of 1000, the assays were monitored every 20 s or at the minimum cycle time for up to 40 min. […] The assay results shown for the fluorescent compounds have been normalised for the amount of fluorescent emission detected using a standard curve of known concentrations of the MCA fluorophore under the identical assay conditions. […]

CtHtrA [3] = target: T1, CtHtrA; assay: MS and MS-MS analysis of peptide cleavage products; type: biochemical; details: peptide 150 µM digested with CtHtrA (71 µg); sites MCA-ENLH↓LPLPI↓IF-DNP
Protocol: Bcas1 and Act1 peptides (150 µM concentration) digested with CtHtrA (71 µg) were analysed by online LC/MS/MS using a QStar Pulsar I (Applied Biosystems) in […] mode. Data acquired were converted into mzXML format using proteowizard (v2) and searched using ([…], the global proteome machine, ftp://ftp.thegpm.org/fasta/cRAP), against CtHtrA and Act1 and Bcas1 peptide sequences with an included decoy database of the reverse sequence for each protein. The search also included potential mass modifications accounting for the additional […] moieties on the N and C peptide termini, respectively. Matches with an expected ratio of <1 were considered identified. All raw data and mass spectra can be made available on request.

CtHtrA [4] = target: T1, CtHtrA; assay: Protease assay with MCA/DNP-labelled fluorimetric peptides (REPLi library); type: biochemical; details: peptide based on the optimal activity for human HtrA2; data not shown
Text: To further refine the CtHtrA substrate specificity, the REPLi peptide library (Mimotopes, Melbourne) was screened. The REPLi library peptides consist of a randomised tripeptide sequence flanked on either side by two GGG tripeptide sequences. The N-terminus of each peptide was labelled with a 7-methoxycoumarin (MCA) fluorophore, and the C-terminus was labelled with a 2,4-dinitrophenyl (DNP) fluorescent quencher. The peptides were pooled according to structural similarity and selected wells with high activity were then rescreened as individual peptides to identify the peptides cut by CtHtrA (Fig. S2, all wells where CtHtrA activity was observed). […] Cleavage at the glycine or terminal fluorophore or quenchers was never detected for any peptide. […]
The purified recombinant protein was examined by Coomassie stained polyacrylamide gels and activity was checked using ß-casein cleavage assays prior to use in peptide assays. […] Protease assays using pNA labelled peptides were conducted using the xMARK Microplate spectrophotometer (Bio-Rad) at 405 nm, incubated at 37°C, with a reading taken every 10 s for 30 min. The maximum slope over a minimum of 8 readings was used for the data analysis. […] The assays were excited at 340 nm and emission was detected at 405 nm with a gain of 1000, the assays were monitored every 20 s or at the minimum cycle time for up to 40 min. […]

CtHtrA [5] = target: T1, CtHtrA; assay: Protease assay and kinetic analysis with pNA-labelled peptide substrates; type: biochemical; details: pNA peptide as substrate, absorbance 405 nm, 37°C; for Vmax: reading every 10 s for 30 min
Protocol: A series of peptide substrates were then designed based on the cleavage sites previously identified in ß-casein [3], PICS results, previously published substrates for E. coli DegP [22], and the REPLi library screening results. These peptides were assayed against CtHtrA and kinetic analysis was conducted (Table 2). […] Generally, peptides with only 4 residues or less were not cleaved. […] The preference for K at P3 implies a salt bridge may be involved in substrate coordination in the CtHtrA active site in the substrate pocket or subsite S3. In a direct comparison between MFRLI-pNA and MFQLI-pNA, R was clearly the most preferred. […] The Km for each of these, however, was at least an order of magnitude higher than the Km for MFKLI-pNa. The results from individually synthesised peptides (Table 2) and the peptides sourced from the REPLi library (Table 1) were consistent in that non-polar sequences are most preferred. […] (Fig. S3).
The purified recombinant protein was examined by Coomassie stained polyacrylamide gels and activity was checked using ß-casein cleavage assays prior to use in peptide assays. Briefly, this involved incubating 2 µg of the protease with 10 µg of ß-casein in 50 mM Tris pH 7.0, 20 mM MgCl2 for 2 h prior to examining the assays by SDS PAGE (ß-casein and protease only controls were always conducted). Protease assays using peptides were conducted using custom synthesised peptides (Mimotopes). The peptides were purified to 95% purity (or greater) and were typically resuspended in 50% isopropanol, although some peptides required 100% DMSO. Protease assays using pNA labelled peptides were conducted using the xMARK Microplate spectrophotometer (Bio-Rad) at 405 nm, incubated at 37°C, with a reading taken every 10 s for 30 min. The maximum slope over a minimum of 8 readings was used for the data analysis. Other peptides were labelled with 7-methoxycoumarin-4-acetic acid (MCA, fluorophore) and 2,4-dinitrophenyl (DNP, quencher). The protease assays using these peptides were conducted in black plates at 37°C using the POLARstar Optima (BMG Labtech). The assays were excited at 340 nm and emission was detected at 405 nm with a gain of 1000, the assays were monitored every 20 s or at the minimum cycle time for up to 40 min. The Omega software was used to calculate the maximum rate from a minimum of 6 time points for each assay. The REPLi library of peptides (Mimotopes, Melbourne, Australia) was also assayed with CtHtrA in the POLARstar Optima using similar assay conditions to those described above. Substrate only and protease only assay controls were conducted for every experiment and protease assays were typically conducted in triplicate on at least two different days. The assay results shown are the maximal rate observed from three or more different assays and adjusted for protein concentration. The assay results shown for the fluorescent compounds have been normalised for the amount of fluorescent emission detected using a standard curve of known concentrations of the MCA fluorophore under the identical assay conditions. All of the peptides used in this work were synthesised commercially to 95% purity or greater (Mimotopes, Melbourne, Australia). All protease assays were conducted minimally in duplicate on three separate occasions.

CtHtrA R373A = assay: Oligomerisation assay, mutated protein; type: biochemical, Chlamydia trachomatis; details: R373A mutant, 10 mins incubation
Protocol: as §1, §2

CtHtrA R299W = assay: Oligomerisation assay, mutated protein; type: biochemical, Chlamydia trachomatis; details: R299W mutant, 10 mins incubation
Protocol: as §1, §2

CtHtrA R373A/R299W = assay: Oligomerisation assay, mutated protein; type: biochemical, Chlamydia trachomatis; details: R373A/R299W mutant, 10 mins incubation
Text: This activation was very similar to that observed for CtHtrA, and was the only condition during which any of the mutated proteins oligomerised in a similar profile to CtHtrA.
as §2, with “All assays were conducted in duplicate on three separate occasions with at least two gels of each experiment completed for each assay condition.” left out

Substance | Kcat/Km (CtHtrA [5]) [M⁻¹ s⁻¹] | Km (CtHtrA [5]) [µM] | Vmax (CtHtrA [5]) | other results
H-LAHMMNCGARMIF-OH [PmpC, C-terminal 13 residues of outer membrane ß-barrel PmpC] | – | – | – | CtHtrA oligomer formation induced by activator (CtHtrA [1]): activated the formation of 12-mer; effect of activator on rate of CtHtrA proteolysis of Bcas1 (CtHtrA [2]): did not increase the rate of proteolysis of Bcas1
MCA-ENLHLPLPIIF-DNP [Bcas1, model ß-casein peptide substrate based on a ß-casein cleavage site] | – | – | – | cleavage sites observed by LC-MS-MS (CtHtrA [3]): Two cleavage sites
MCA-IRRVSYSF-DNP | – | – | – | viability as substrate for CtHtrA (CtHtrA [4]): not a viable substrate
MFKLI-pNA | 1084.8 | 62 | 4.046 mM sec^−1, µM CtHtrA^−1 | –
MFQLI-pNA [pNA peptide substrate, P3 modification] | 21.2 | 141 | 0.1796 mM sec^−1, µM CtHtrA^−1 | –
MFRLI-pNA [pNA peptide substrate, P3 modification] | 106.22 | 2910 | 18.53 mM sec^−1, µM CtHtrA^−1 | –
PMFKLI-pNA [pNA peptide substrate, 1 residue less] | 526.7 | 314 | 9.931 mM sec^−1, µM CtHtrA^−1 | –
insulin: previously demonstrated in vitro chaperone substrate of CtHtrA [reference compound] | – | – | – | CtHtrA oligomer formation induced by activator (CtHtrA [1]): activated to 24-mers with little hexamer visible; oligomer formation induced by activator (CtHtrA R373A): mainly detected as hexamer; oligomer formation induced by activator (CtHtrA R299W): mainly hexamer; oligomer formation induced by activator (CtHtrA R373A/R299W): did not form a similar profile of oligomers as wild-type CtHtrA
